Earlier results in patent US20120238596A1, “FORMULATIONS COMPRISING PALONOSETRON” (DR. REDDY'S LABORATORIES, INC., priority 2008, published 2012).

Biological target: T1, serotonin subtype 3 (5-HT3) receptor (Homo sapiens, UniProt P46098)
T1 sequence (P46098 24-478): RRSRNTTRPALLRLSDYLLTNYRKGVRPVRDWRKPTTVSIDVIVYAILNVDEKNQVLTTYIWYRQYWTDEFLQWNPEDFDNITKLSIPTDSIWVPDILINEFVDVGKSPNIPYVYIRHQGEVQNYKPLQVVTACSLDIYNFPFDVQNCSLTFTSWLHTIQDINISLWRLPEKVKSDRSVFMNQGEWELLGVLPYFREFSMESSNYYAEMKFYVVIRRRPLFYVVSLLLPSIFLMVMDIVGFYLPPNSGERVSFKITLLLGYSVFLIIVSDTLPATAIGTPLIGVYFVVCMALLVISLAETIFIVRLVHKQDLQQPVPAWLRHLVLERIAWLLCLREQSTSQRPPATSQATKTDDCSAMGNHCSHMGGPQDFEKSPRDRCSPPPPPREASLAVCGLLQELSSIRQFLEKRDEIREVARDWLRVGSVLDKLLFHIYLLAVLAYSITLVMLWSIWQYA

Cl.O=C1c2cccc3c2[C@H](CCC3)CN1[C@@H]1CN2CCC1CC2 [Palonosetron hydrochloride, (3a5)-2-[(S)-1-Azabicyclo [2.2.2]oct-3-yl]-2,3,3a,4,5,6-hexahydro-1-oxo-1H-benz [de]isoquinoline hydrochloride]
binding affinity for 5-HT3 receptor: strong binding affinity
